Earlier results in patent US20050201943A1, “Magnetic resonance imaging using contrast agents bioactivated by enzymatic cleavage” (Epix Medical, Inc.,. a Delaware corporation, priority 2000, published 2005).
Residues, ends and D or L forms follow the SMILES beside them. *: point of attachment. Bz = O=C(c1ccccc1)*

Assays:
TAFI = target: T1, TAFI (Homo sapiens, UniProt Q96IY4); conditions: other TAFI substrate, given for comparison
T1 sequence (Q96IY4 115-423): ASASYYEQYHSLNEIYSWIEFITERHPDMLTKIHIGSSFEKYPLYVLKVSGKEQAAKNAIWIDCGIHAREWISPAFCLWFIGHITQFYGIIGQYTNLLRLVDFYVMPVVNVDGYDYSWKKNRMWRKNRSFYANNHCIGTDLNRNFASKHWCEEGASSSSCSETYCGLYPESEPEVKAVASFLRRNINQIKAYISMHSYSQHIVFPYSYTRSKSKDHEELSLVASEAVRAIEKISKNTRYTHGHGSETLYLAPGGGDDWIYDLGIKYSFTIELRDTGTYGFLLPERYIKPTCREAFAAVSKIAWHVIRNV

[1] = target: human serum albumin (HSA) (Homo sapiens, UniProt P02768); conditions: bound to HSA versus unbound in aqueous solution
Sequence of human serum albumin (HSA) (P02768 25-609): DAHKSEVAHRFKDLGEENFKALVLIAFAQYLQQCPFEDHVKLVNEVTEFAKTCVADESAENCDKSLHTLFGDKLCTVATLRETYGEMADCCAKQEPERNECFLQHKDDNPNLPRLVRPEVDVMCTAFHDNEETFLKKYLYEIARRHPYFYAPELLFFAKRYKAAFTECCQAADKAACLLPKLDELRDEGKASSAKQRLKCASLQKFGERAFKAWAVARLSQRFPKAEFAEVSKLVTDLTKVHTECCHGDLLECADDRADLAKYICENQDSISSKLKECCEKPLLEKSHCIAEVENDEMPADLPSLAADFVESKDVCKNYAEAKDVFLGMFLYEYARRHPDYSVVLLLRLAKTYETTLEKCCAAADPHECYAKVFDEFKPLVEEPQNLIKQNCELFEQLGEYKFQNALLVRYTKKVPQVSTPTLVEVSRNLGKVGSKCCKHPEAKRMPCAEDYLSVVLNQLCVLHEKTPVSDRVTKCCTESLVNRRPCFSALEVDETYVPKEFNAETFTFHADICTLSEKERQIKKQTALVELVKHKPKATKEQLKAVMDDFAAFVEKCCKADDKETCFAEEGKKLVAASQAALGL

Km (TAFI) [µM]	kcat (TAFI) [s⁻¹]	increase in relaxivity of the protein-bound form compared to the unbound contrast agent [1]	Compound
140	21		N=C(N)NCCC[C@H](NC(=O)CNC(=O)c1ccccc1)C(=O)O [hippuryl arginine] (Bz-Gly-Arg-OH)
		seven to eight times	O=C([O-])CN(CCN(CC(=O)[O-])C[C@H](COP(=O)([O-])OC1CCC(c2ccccc2)(c2ccccc2)CC1)N(CC(=O)[O-])CC(=O)[O-])CC(=O)[O-].[Gd+3].[H+].[H+].[H+] [MS-325]
